Patent US20190300882A1, “METHODS OF TREATING NEUROBLASTOMA AND REAGENTS THEREFOR” (GARVAN INSTITUTE OF MEDICAL RESEARCH, priority 2016, published 2019)

Key:
KELLY cells [1] = test: Primary miRNA mimic screen in combination with low dose IC30 of vincristine or doxorubicin, cell viability; assay type: cell-based; conditions: for Primary screen Viability (% of control) Kelly DXR: miRNA mimic 25 nM + low dose IC30 doxorubicin; for Primary screen Viability (% of control) Kelly VCR: miRNA mimic 25 nM + low dose IC30 vincristine; for Primary screen Viability (% of control) Kelly Vehicle: miRNA mimic 25 nM + vehicle
Method: To systematically identify miRNAs that affect viability and survival of neuroblstoma cells in combination with chemotherapy, a further functional miRNA screen was performed using the 1200 miRNAs from the miRIDIAN miRNA mimic Library (version 16.0; Dharmacon) in combination with low dose IC30 of vincristine or doxorubicin in the two neuroblastoma cancer cell lines. In doing so, the inventors identified miRNAs which result in a lethal phenotype to neuroblastoma cells when administered in combination with low dose IC30 chemotherapy (hereinafter referred to as ‘synthetic lethal’ miRNAs). […] After 24 hours, media was changed using a BioTek 406. […] Luminescence measurements were taken on the Synergy H4 high-throughput multimode microplate reader as described in Example 1. All screens were performed in duplicates.

KELLY cells [2] = test: Secondary validation screen of synthetic lethal miRNAs with low dose IC30 chemotherapy, cell viability; assay type: cell-based; conditions: for synthetic lethality with chemotherapy: in both Kelly and SKNDZ MYCN-amplified cells, secondary screen; for Secondary screen Viability (% of control) Kelly DXR: miRNA mimic + low dose IC30 doxorubicin; for Secondary screen Viability (% of control) Kelly VCR: miRNA mimic + low dose IC30 vincristine; for Secondary screen Viability (% of control) Kelly Vehicle: miRNA mimic + vehicle
Method: (§1) KELLY cells were grown in 10% FCS/RPMI as described in Example 1 and reverse transfected in 384-well plate format with 25 nM of a miRNA from the Dharmacon microRNA mimic Library (version 16.0) using liquid-handling robot Calliper Sciclone ALH3000 according to the conditions described in Table 3. After 24 hours, media was changed using a BioTek 406. Media was again changed after 48 hours and 96 hours using a BioTek 406, and at each of those time points low dose IC30 of vincristine or doxorubicin was added to the culture. 144 hours post-transfection, cell viability was determined using CellTiter-Glo luminescent assay (Promega) at 1:2 dilution. Luminescence measurements were taken on the Synergy H4 high-throughput multimode microplate reader as described in Example 1. All screens were performed in duplicates. The experimental design and timeline for this screen are illustrated in FIGS. 5 and 6, respectively.
(§2) The secondary validation screens were performed in accordance with the genome-wide screens described in Example 1 and Example 2, respectively, with the exception that an additional MYCN-amplified neuroblastoma cell line (SK-N-DZ) was added to each screen.
(§3) Furthermore, five additional non-active miRNAs discovered to have no measureable effect across all treatment groups of the genome-wide screen (‘non-lethal’ miRNAs) were included as negative controls.

[3] = system: SK-N-DZ MYCN-amplified neuroblastoma cell line; test: Secondary validation screen of synthetic lethal miRNAs with low dose IC30 chemotherapy, additional cell line; assay type: cell-based; conditions: for Additional cell line Viability (% of control) SKNDZ DXR: miRNA mimic + low dose IC30 doxorubicin; for Additional cell line Viability (% of control) SKNDZ VCR: miRNA mimic + low dose IC30 vincristine; for Additional cell line Viability (% of control) SKNDZ Vehicle: miRNA mimic + vehicle
Method: as §1, §2, §3

IMR-90 cells = test: Cell toxicity screen of synthetic lethal miRNAs in non-cancer cells; conditions: for cell viability in non-cancer cells, DXR (% of control): IMR-90, miRNA + low dose IC30 doxorubicin; for cell viability in non-cancer cells, VCR (% of control): IMR-90, miRNA + low dose IC30 vincristine; for cell viability in non-cancer cells, Media (% of control): IMR-90, miRNA alone (media); for activity in IMR90 cells: even when administered in combination with a chemotherapeutic agent
Method: The cell toxicity screens were performed in IMR-90 cells (normal human fibroblast cells, ATCC).

Substance	Primary screen Viability (% of control) Kelly DXR (KELLY cells [1])	Primary screen Viability (% of control) Kelly VCR (KELLY cells [1])	Primary screen Viability (% of control) Kelly Vehicle (KELLY cells [1])	synthetic lethality with chemotherapy (KELLY cells [2])	Secondary screen Viability (% of control) Kelly DXR (KELLY cells [2])	Secondary screen Viability (% of control) Kelly VCR (KELLY cells [2])	Secondary screen Viability (% of control) Kelly Vehicle (KELLY cells [2])	Additional cell line Viability (% of control) SKNDZ DXR [3]	Additional cell line Viability (% of control) SKNDZ VCR [3]	Additional cell line Viability (% of control) SKNDZ Vehicle [3]	cell viability in non-cancer cells, DXR (% of control) (IMR-90 cells)	cell viability in non-cancer cells, VCR (% of control) (IMR-90 cells)	cell viability in non-cancer cells, Media (% of control) (IMR-90 cells)	activity in IMR90 cells (IMR-90 cells)
hsa-miR-34a-5p (UGGCAGUGUCUUAGCUGGUUGU; chemistry not given here; listed as Homo sapiens)	70 % of control	36 % of control	72 % of control	substantial synthetic lethality	98 % of control	35 % of control	96 % of control	74 % of control	57 % of control	92 % of control	53 % of control	63 % of control	46 % of control	
hsa-miR-34c-5p (AGGCAGUGUAGUUAGCUGAUUGC; chemistry not given here; listed as Homo sapiens)	74 % of control	36 % of control	72 % of control		80 % of control	18 % of control	68 % of control	34 % of control	31 % of control	53 % of control				
hsa-miR-99b-5p (guide CACCCGUAGAACCGACCUUGCG; chemistry not given here; listed as Homo sapiens)	28 % of control	49 % of control	65 % of control	substantial synthetic lethality	29 % of control	44 % of control	67 % of control	36 % of control	61 % of control	93 % of control	72 % of control	75 % of control	87 % of control	minimal activity
hsa-miR-100-5p (AACCCGUAGAUCCGAACUUGUG; chemistry not given here; listed as Homo sapiens)	34 % of control	48 % of control	68 % of control		43 % of control	43 % of control	69 % of control	48 % of control	69 % of control	98 % of control				
hsa-miR-380-3p (UAUGUAAUAUGGUCCACAUCUU; chemistry not given here; listed as Homo sapiens)	20 % of control	63 % of control	94 % of control	substantial synthetic lethality	38 % of control	76 % of control	90 % of control	30 % of control	80 % of control	100 % of control	96 % of control	117 % of control	99 % of control	minimal activity
hsa-miR-449a (guide UGGCAGUGUAUUGUUAGCUGGU; chemistry not given here; listed as Homo sapiens)	62 % of control	22 % of control	72 % of control		83 % of control	35 % of control	75 % of control	49 % of control	44 % of control	71 % of control				
hsa-miR-485-3p (guide GUCAUACACGGCUCUCCUCUCU; chemistry not given here; listed as Homo sapiens)	23 % of control	52 % of control	72 % of control	substantial synthetic lethality	47 % of control	53 % of control	85 % of control	69 % of control	68 % of control	113 % of control	76 % of control	80 % of control	79 % of control	minimal activity
hsa-miR-3151 (GGUGGGGCAAUGGGAUCAGGU; chemistry not given here; listed as Homo sapiens)	40 % of control	52 % of control	102 % of control		65 % of control	47 % of control	102 % of control	71 % of control	72 % of control	87 % of control				
hsa-miR-3181 (AUCGGGCCCUCGGCGCCGG; chemistry not given here; listed as Homo sapiens)	34 % of control	57 % of control	94 % of control		61 % of control	96 % of control	108 % of control	38 % of control	83 % of control	91 % of control				
hsa-miR-3646 (AAAAUGAAAUGAGCCCAGCCCA; chemistry not given here; listed as Homo sapiens)	34 % of control	55 % of control	74 % of control		45 % of control	72 % of control	70 % of control	52 % of control	110 % of control	101 % of control				
hsa-miR-3924 (AUAUGUAUAUGUGACUGCUACU; chemistry not given here; listed as Homo sapiens)	35 % of control	40 % of control	72 % of control		46 % of control	57 % of control	75 % of control	41 % of control	81 % of control	85 % of control				
